In patent publication US20210283261A1, “Compositions and Methods for Treating ALK-Mediated Cancer” (ICAHN SCHOOL OF MEDICINE AT MOUNT SINAI, priority 2017, published 2021):

Columns and labels:
Format in all cases: cell-based
NPM-ALK fusion protein = target: T1, NPM-ALK fusion protein (Homo sapiens, UniProt Q9UM73); test: Western blot of NPM-ALK fusion protein levels in SU-DHL-1 cells; details: for Dmax at 0.03 µM: read-out: ALK fusion protein degradation, SU-DHL-1 (30 nM)
T1 construct: endogenous in cells; host or cells: SU-DHL-1; the other entry of the earlier key: NPM1 (P06748, Nucleophosmin)
Procedure: (§1) Cells were cultured in a 37° C. incubator with 5% CO2.
(§2) Cells were washed with cold PBS once and lysed in 1× Laemmli loading buffer directly. […] Membrane was blocked in 5% milk in Tris-buffered saline and Tween 20 (TBST) for 1 h at room temperature, followed by incubation with a primary antibody overnight at 4° C., and a horseradish peroxidase (HRP)-conjugated secondary antibody for 1 h at room temperature. The membrane was imaged by a ChemiDoc MP imaging system (BIO-RAD). Antibodies against GAPDH (abeam), Phospho-ALK (Tyr1507), ALK (Cell Signaling Technology), Tubulin (Santa Cruz) were purchased commercially.
SU-DHL-1 suspension cells were seeded in 12-well plates at a density of 6×10^5/mL and treated with DMSO or indicated compounds at 30 nM or 100 nM for indicated time.
SU-DHL-1 cells were seeded in 12-well plates at a density of 4×10^5/mL and treated with DMSO or indicated serial dilutions of compounds for 16 h. The NPM-ALK fusion protein levels were determined by Western blot and normalized against GPADH (right panel).

ALK fusion protein = target: T2, ALK fusion protein (Homo sapiens, UniProt Q9UM73); test: Western blot of ALK fusion protein levels in NCI-H3122 cells; details: for Dmax at 0.5 µM: NCI-H3122, NCI-H3122 cells, read-out: ALK fusion protein degradation, NCI-H3122 (500 nM); for significantly reduced ALK fusion protein levels (degraders vs negative controls): 16 h
T2 construct: endogenous in cells; host or cells: NCI-H3122; the other entry of the earlier key: EML4 (Q9HC35, Echinoderm microtubule-associated protein-like 4)
Procedure: SU-DHL-1, NCI-H3122 and NCI-H2228 cells were cultured in RPMI-1640 medium supplemented with 10% fetal bovine serum, 50 μg/mL penicillin and streptomycin. Cells were cultured in a 37° C. incubator with 5% CO2.
Cells were washed with cold PBS once and lysed in 1× Laemmli loading buffer directly. Lysates were heated at 99° C. for […], and resolved on 4-15% precast SDS-PAGE (BIO-RAD) and transferred onto PVDF membrane. Membrane was blocked in 5% milk in Tris-buffered saline and Tween 20 (TBST) for 1 h at room temperature, followed by incubation with a primary antibody overnight at 4° C., and a horseradish peroxidase (HRP)-conjugated secondary antibody for 1 h at room temperature. The membrane was imaged by a ChemiDoc MP imaging system (BIO-RAD). Antibodies against GAPDH (abeam), Phospho-ALK (Tyr1507), ALK (Cell Signaling Technology), Tubulin (Santa Cruz) were purchased commercially. […]

ALK = test: Characterization of ALK degraders in ALCL and NSCLC cells (summary); details: summary statement
Source text: Specific exemplary ALK degraders/disruptors were characterized in various different anaplastic large cell lymphoma (ALCL) cells and non-small cell lung cancer (NSCLC) cells (Examples 4-19, FIGS. 1-18). […] This efficacy in suppressing ALK expression and ALK activity correlated with efficacy in inhibiting cancer cell proliferation.

SU-DHL-1 cells = test: Cell viability assay in SU-DHL-1 cells; details: Homo sapiens, 60 h, 2.5 days, CellTiter-Glo, read-out: GI50 (drug concentration that results in 50% growth inhibition)
Procedure: (§3) SU-DHL-1 cells were seeded in 96-well plates at a density of 1×10^4 cells per well, in triplicate. Treated cells with DMSO or indicated serial dilutions of compounds for 2.5 days. Cell growth/survival was measured by using the CellTiter-Glo luminescent cell viability assay following the manufacturer's instructions (Promega) or CCK8 cell viability assay (Sigma). Data was analyzed by using the GraphPad Prism software, Error bars represent ±SD for triplicate experiments.
as §3, with “assay.” for “assay following the manufacturer's instructions (Promega) or CCK8 cell viability assay (Sigma).”, “experiments (left panel).” for “experiments.”
SU-DHL-1 cells were seeded in 96-well plates at a density of 5000 cells per well, in triplicate. The cells were treated with DMSO or indicated serial dilutions of compounds for 3 days. Cell growth was measured using the CellTiter-Glo luminescent cell viability assay. Data were analyzed using the GraphPad Prism.
SU-DHL-1 and NCI-3122 cells were treated with DMSO or indicated serial dilutions of compounds for 3 days. Data were analyzed using the GraphPad Prism.

[1] = target: T3, EML4-ALK v3 fusion protein (Homo sapiens, UniProt Q9UM73); test: Western blot of EML4-ALK v3 fusion protein levels in NCI-H2228 cells; details: 16 h
T3 construct: endogenous in cells; host or cells: NCI-H2228
Procedure: as §1, §2
Cells were 70% confluent and treated with DMSO or indicated serial dilutions of compounds for 16 h. The EML4-ALK fusion protein levels were determined by Western blot and normalized against GPADH (right panel).

[2] = SU-DHL-1 cells, 30 nM, Western blot

T1 sequence (Q9UM73 with tags, fused parts or gaps): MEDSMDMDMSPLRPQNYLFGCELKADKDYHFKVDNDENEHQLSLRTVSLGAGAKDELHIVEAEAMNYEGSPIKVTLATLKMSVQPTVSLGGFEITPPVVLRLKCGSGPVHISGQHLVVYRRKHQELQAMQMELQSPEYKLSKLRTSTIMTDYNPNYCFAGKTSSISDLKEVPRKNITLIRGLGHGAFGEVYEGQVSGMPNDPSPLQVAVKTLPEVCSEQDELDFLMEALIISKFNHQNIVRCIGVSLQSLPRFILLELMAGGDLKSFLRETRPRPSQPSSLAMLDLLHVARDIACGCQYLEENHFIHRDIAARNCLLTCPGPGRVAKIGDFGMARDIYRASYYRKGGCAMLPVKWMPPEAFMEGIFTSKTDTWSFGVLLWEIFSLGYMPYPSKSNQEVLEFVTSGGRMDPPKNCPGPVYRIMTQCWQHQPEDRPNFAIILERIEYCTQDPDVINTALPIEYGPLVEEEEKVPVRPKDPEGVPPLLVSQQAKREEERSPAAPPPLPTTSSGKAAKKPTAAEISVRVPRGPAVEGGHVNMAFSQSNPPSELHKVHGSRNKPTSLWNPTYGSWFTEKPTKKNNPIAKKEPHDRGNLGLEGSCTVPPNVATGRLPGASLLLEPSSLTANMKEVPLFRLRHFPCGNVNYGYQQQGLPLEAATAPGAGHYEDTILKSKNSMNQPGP
T2 sequence (Q9UM73 with tags, fused parts or gaps): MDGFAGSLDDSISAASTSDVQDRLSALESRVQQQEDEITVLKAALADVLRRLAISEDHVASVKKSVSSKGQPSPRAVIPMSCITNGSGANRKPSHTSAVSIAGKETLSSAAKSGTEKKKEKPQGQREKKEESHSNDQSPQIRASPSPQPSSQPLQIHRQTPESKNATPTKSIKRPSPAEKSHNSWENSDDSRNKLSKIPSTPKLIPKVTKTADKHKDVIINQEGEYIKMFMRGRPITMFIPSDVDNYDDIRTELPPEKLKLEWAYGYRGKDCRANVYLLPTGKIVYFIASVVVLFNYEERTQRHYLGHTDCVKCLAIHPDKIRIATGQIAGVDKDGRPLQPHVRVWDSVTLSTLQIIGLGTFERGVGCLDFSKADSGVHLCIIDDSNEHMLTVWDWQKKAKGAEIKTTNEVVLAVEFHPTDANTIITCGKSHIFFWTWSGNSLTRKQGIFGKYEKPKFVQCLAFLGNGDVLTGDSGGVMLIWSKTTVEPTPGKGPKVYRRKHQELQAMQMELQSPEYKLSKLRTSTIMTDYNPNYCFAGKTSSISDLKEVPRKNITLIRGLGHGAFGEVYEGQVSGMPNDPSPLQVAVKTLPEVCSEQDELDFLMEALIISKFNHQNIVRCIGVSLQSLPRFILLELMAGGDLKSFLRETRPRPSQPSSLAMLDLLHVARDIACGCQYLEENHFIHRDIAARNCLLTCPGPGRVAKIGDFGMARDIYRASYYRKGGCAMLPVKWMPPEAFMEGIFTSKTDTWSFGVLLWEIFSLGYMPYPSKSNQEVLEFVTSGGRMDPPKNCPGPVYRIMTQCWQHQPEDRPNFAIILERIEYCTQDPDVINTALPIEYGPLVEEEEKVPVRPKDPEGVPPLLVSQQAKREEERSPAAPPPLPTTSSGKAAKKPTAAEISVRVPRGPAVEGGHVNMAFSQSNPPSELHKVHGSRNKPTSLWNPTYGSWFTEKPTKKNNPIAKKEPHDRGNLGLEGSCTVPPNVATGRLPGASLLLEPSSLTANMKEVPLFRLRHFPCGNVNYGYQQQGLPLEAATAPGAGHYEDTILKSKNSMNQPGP
T3 sequence (Q9UM73 1058-1620 limits assumed): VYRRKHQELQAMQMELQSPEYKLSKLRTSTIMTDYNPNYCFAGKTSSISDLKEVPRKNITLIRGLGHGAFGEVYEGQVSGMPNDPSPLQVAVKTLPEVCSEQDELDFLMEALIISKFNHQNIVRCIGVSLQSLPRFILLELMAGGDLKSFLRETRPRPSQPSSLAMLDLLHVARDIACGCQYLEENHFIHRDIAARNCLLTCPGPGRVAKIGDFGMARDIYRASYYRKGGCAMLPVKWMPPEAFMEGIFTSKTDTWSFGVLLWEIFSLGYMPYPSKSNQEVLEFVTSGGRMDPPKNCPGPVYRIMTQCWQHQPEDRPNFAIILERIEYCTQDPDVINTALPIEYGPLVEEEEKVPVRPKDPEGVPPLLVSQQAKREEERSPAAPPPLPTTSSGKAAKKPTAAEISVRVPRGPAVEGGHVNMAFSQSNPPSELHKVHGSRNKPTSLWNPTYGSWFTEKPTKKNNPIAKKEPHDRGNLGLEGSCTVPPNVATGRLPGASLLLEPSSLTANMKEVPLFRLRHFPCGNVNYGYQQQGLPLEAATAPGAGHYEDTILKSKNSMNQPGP

## Cc1cc(Nc2ncc(Cl)c(Nc3ccccc3S(=O)(=O)C(C)C)n2)c(OC(C)C)cc1C1CCN(C(=O)CCCC(=O)N[C@H](C(=O)N2C[C@@H](O)C[C@H]2C(=O)NCc2ccc(-c3scnc3C)cc2)C(C)(C)C)CC1 [HC58-111, (2S,4S)-1-((S)-2-(5-(4-(4-((5-Chloro-4-((2-(isopropylsulfonyl)phenyl)amino)pyrimidin-2-yl)amino)-5-isopropoxy-2-methylphenyl)piperidin-1-yl)-5-oxopentanamido)-3,3-dimethylbutanoyl)-4-hydroxy-N-(4-(4-methylthiazol-5-yl)benzyl)pyrrolidine-2-carboxamide]
NPM-ALK fusion protein; SU-DHL-1 cells, 16 h
  significantly reduced ALK fusion protein levels (degraders vs negative controls): not
ALK fusion protein; 500 nM, Western blot
  Dmax at 0.5 µM: < 20%
ALK fusion protein; NCI-H3122 cells
  significantly reduced ALK fusion protein levels (degraders vs negative controls): not

## Cc1cc(Nc2ncc(Cl)c(Nc3ccccc3S(=O)(=O)C(C)C)n2)c(OC(C)C)cc1C1CCN(CC(=O)NCCOCCOCCOCCOCCNc2cccc3c2C(=O)N(C2CCC(=O)NC2=O)C3=O)CC1 (stereo not drawn) [CZ40-53, 2-(4-(4-((5-Chloro-4-((2-(isopropylsulfonyl)phenyl)amino)pyrimidin-2-yl)amino)-5-isopropoxy-2-methylphenyl)piperidin-1-yl)-N-(14-((2-(2,6-dioxopiperidin-3-yl)-1,3-dioxoisoindolin-4-yl)amino)-3,6,9,12-tetraoxatetradecyl)acetamide]
NPM-ALK fusion protein; [2]
  Dmax at 0.03 µM: > 80%
ALK
  suppressing both ALK expression and ALK activity: especially effective
SU-DHL-1 cells
  GI50: < 40 nM

## Cc1cc(Nc2ncc(Cl)c(Nc3ccccc3S(=O)(=O)C(C)C)n2)c(OC(C)C)cc1C1CCN(C(=O)CCCCC(=O)N[C@H](C(=O)N2C[C@@H](O)C[C@H]2C(=O)NCc2ccc(-c3scnc3C)cc2)C(C)(C)C)CC1 [HC58-112, (2S,4S)-1-((S)-2-(6-(4-(4-((5-chloro-4-((2-(isopropylsulfonyl)phenyl)amino)pyrimidin-2-yl)amino)-5-isopropoxy-2-methylphenyl)piperidin-1-yl)-6-oxohexanamido)-3,3-dimethylbutanoyl)-4-hydroxy-N-(4-(4-methylthiazol-5-yl)benzyl)pyrrolidine-2-carboxamide]
NPM-ALK fusion protein; SU-DHL-1 cells, 16 h
  significantly reduced ALK fusion protein levels (degraders vs negative controls): not
ALK fusion protein; 500 nM, Western blot
  Dmax at 0.5 µM: < 20%
ALK fusion protein; NCI-H3122 cells
  significantly reduced ALK fusion protein levels (degraders vs negative controls): not

## Cc1cc(Nc2ncc(Cl)c(Nc3ccccc3S(=O)(=O)C(C)C)n2)c(OC(C)C)cc1C1CCNCC1 [ceritinib, reference compound]
NPM-ALK fusion protein; SU-DHL-1 cells, 30 nM or 100 nM
  effect on NPM-ALK fusion protein levels: no effect
NPM-ALK fusion protein; SU-DHL-1 cells, 1, 3, 10, 30 or 100 nM, 16 h
  effect on NPM-ALK fusion protein levels, concentration dependence: no significant effect
[1]; NCI-H2228 cells, 100 nM
  effect on ALK protein levels: no distinct effect
[1]; NCI-H2228 cells, 1, 3, 10, 30 or 100 nM
  effect on EML4-ALK fusion protein levels, concentration dependence: no significant effect

## Cc1cc(Nc2ncc(Cl)c(Nc3ccccc3S(=O)(=O)C(C)C)n2)c(OC(C)C)cc1C1CCN(CC(=O)NCCCCCCCNc2cccc3c2C(=O)N(C2CCC(=O)NC2=O)C3=O)CC1 (stereo not drawn) [CZ40-83, 2-(4-(4-((5-Chloro-4-((2-(isopropylsulfonyl)phenyl)amino)pyrimidin-2-yl)amino)-5-isopropoxy-2-methylphenyl)piperidin-1-yl)-N-(7-((2-(2,6-dioxopiperidin-3-yl)-1,3-dioxoisoindolin-4-yl)amino)heptyl)acetamide]
NPM-ALK fusion protein; [2]
  Dmax at 0.03 µM: > 80%

## Cc1cc(Nc2ncc(Cl)c(Nc3ccccc3S(=O)(=O)C(C)C)n2)c(OC(C)C)cc1C1CCN(CC(=O)NCCOCCOCC(=O)N[C@H](C(=O)N2C[C@H](O)C[C@H]2C(=O)NCc2ccc(-c3scnc3C)cc2)C(C)(C)C)CC1 [CZ40-86, (2S,4R)-1-((S)-2-(tert-Butyl)-14-(4-(4-((5-chloro-4-((2-(isopropylsulfonyl)phenyl)amino)pyrimidin-2-yl)amino)-5-isopropoxy-2-methylphenyl)piperidin-1-yl)-4,13-dioxo-6,9-dioxa-3,12-diazatetradecanoyl)-4-hydroxy-N-(4-(4-methylthiazol-5-yl)benzyl)pyrrolidine-2-carboxamide]
NPM-ALK fusion protein; [2]
  Dmax at 0.03 µM: < 20%

## Cc1cc(Nc2ncc(Cl)c(Nc3ccccc3S(=O)(=O)C(C)C)n2)c(OC(C)C)cc1C1CCN(C(=O)COCCOCC(=O)N[C@H](C(=O)N2CC(O)C[C@H]2C(=O)NCc2ccc(-c3scnc3C)cc2)C(C)(C)C)CC1 (stereo in doubt) [HC58-110, (2S,4S)-1-((S)-2-(2-(2-(2-(4-(4-((5-Chloro-4-((2-(isopropylsulfonyl)phenyl)amino)pyrimidin-2-yl)amino)-5-isopropoxy-2-methylphenyl)piperidin-1-yl)-2-oxoethoxy)ethoxy)acetamido)-3,3-dimethylbutanoyl)-4-hydroxy-N-(4-(4-methylthiazol-5-yl)benzyl)pyrrolidine-2-carboxamide]
NPM-ALK fusion protein; SU-DHL-1 cells, 16 h
  significantly reduced ALK fusion protein levels (degraders vs negative controls): not
ALK fusion protein; NCI-H3122 cells, 500 nM, Western blot
  ALK fusion protein degradation, NCI-H3122 (500 nM): − (Protein degradation <20%)
ALK fusion protein; NCI-H3122 cells
  significantly reduced ALK fusion protein levels (degraders vs negative controls): not

## Cc1cc(Nc2ncc(Cl)c(Nc3ccccc3S(=O)(=O)C(C)C)n2)c(OC(C)C)cc1C1CCN(CC(=O)NCCCCCCCCCC(=O)N[C@H](C(=O)N2C[C@H](O)C[C@H]2C(=O)NCc2ccc(-c3scnc3C)cc2)C(C)(C)C)CC1 [CZ40-93]
NPM-ALK fusion protein; [2]
  Dmax at 0.03 µM: < 20%

## Cc1cc(Nc2ncc(Cl)c(Nc3ccccc3S(=O)(=O)C(C)C)n2)c(OC(C)C)cc1C1CCN(CC(=O)NCCCCCCCCCCC(=O)NC(C(=O)N2CC(O)CC2C(=O)NCc2ccc(-c3scnc3C)cc2)C(C)(C)C)CC1 [CZ40-94, (2S,4R)-1-((S)-2-((11-(2-(4-(4-((5-Chloro-4-((2-(isopropylsulfonyl)phenyl)amino)pyrimidin-2-yl)amino)-5-isopropoxy-2-methylphenyl)piperidin-1-yl)acetamido)undecanamido)-3,3-dimethylbutanoyl)-4-hydroxy-N-(4-(4-methylthiazol-5-yl)benzyl)pyrrolidine-2-carboxamide]
NPM-ALK fusion protein; [2]
  ALK fusion protein degradation, SU-DHL-1 (30 nM): + (Protein degradation 20-80%)

## Cc1cc(Nc2ncc(Cl)c(Nc3ccccc3S(=O)(=O)C(C)C)n2)c(OC(C)C)cc1C1CCN(CC(=O)NCCCCCC(=O)N[C@H](C(=O)N2C[C@H](O)C[C@H]2C(=O)NCc2ccc(-c3scnc3C)cc2)C(C)(C)C)CC1 [CZ40-89, (2S,4R)-1-((S)-2-(6-(2-(4-(4-((5-chloro-4-((2-(isopropylsulfonyl)phenyl)amino)pyrimidin-2-yl)amino)-5-isopropoxy-2-methylphenyl)piperidin-1-yl)acetamido)hexanamido)-3,3-dimethylbutanoyl)-4-hydroxy-N-(4-(4-methylthiazol-5-yl)benzyl)pyrrolidine-2-carboxamide]
NPM-ALK fusion protein; [2]
  Dmax at 0.03 µM: 20 to 80%
